The experiment deals with retinal neovascularization. Put plainly: rat pup model of retinopathy of prematurity (oxygen-induced retinopathy). It counts as in vivo. The settings on record: local administration, FIG. 1. As to the method:
FIG. 1. […] Anecortave acetate was tested for its angiostatic efficacy in a rat pup model of retinopathy of prematurity (Penn, at al., Investigative Ophthalmology & Visual Science, “The Effect of an Angiostatic Steroid on Neovascularization in a Rat Model of Retinopathy of Prematurity,” Vol. 42(1):283-290, January 2001). Newborn rat pups were placed in an atmosphere of varying oxygen content. The rats received a single intravitreal injection of vehicle or anecortave acetate (500 μg) upon return to room air (day 14) or 2 days later (day 16). There was significant retinal neovascularization in the rats that received vehicle injections.

For the molecule `CC(=O)OCC(=O)[C@@]1(O)CC[C@H]2[C@@H]3CCC4=CC(=O)CC[C@]4(C)C3=CC[C@@]21C` [Anecortave acetate, 4,9(11)-pregnadien-17α,21-diol-3,20dione-21-acetate], the “preretinal neovascularization (neovascular score)” value was “inhibits”.

(Values after patent US20040259765A1, “Formulations of non-steroidal anti-inflammatory agents to treat pathologic ocular angiogenesis” (priority 2003, published 2004).)
